Laboratory results as given in ChEMBL document CHEMBL3885861, “Open TG-GATES”.

Species: Rattus norvegicus
Assay: Open TG-GATES - Regimen: Single
Format: toxicity, organism-based, Sprague-Dawley
Set-up: regimen Single, gender Male, age 6 weeks
Conditions: in vivo, po, 30 mg/kg, route gavage, dose level Low; for APTT / Bas / Eos / Fbg / Hb / Ht / Lym / MCH / MCHC / MCV / Mono / Neu / PT / Plat / RBC / Ret / WBC: tissue Blood; for KIDNEY_L / KIDNEY_R / KIDNEY_TOTAL: tissue Kidney; for LIVER: tissue Liver; for A/G / ALP / ALT / AST / BUN / CRE / Ca / Cl / DBIL / GLC / IP / K / LDH / Na / PL / RALB / TBIL / TC / TG / TP / gamma-GTP: tissue Plasma

CC[C@H]1[C@@H]2C[C@H]3[C@@H]4N(C)c5ccccc5[C@]45C[C@@H]([C@@H]2[C@H]5O)N3[C@@H]1O [AJMALINE]
TERMINAL_BW (3 h): 194.7 g
APTT (3 h): 16.9 s
Bas (3 h): 0%
Eos (3 h): 1%
Fbg (3 h): 196.4 mg/dL
Hb (3 h): 12.8 g/dL
Ht (3 h): 39.1%
Lym (3 h): 78.6%
MCH (3 h): 21.7 pg
MCHC (3 h): 32.8%
MCV (3 h): 66.3 fL
Mono (3 h): 8.8%
Neu (3 h): 12%
PT (3 h): 11.6 s
Plat (3 h): 121.5 x10_4/uL
RBC (3 h): 590.6 x10_4/ul
Ret (3 h): 12.4%
WBC (3 h): 114.3 x10_2/uL
KIDNEY_L (3 h): 0.9 g
KIDNEY_R (3 h): 0.9 g
KIDNEY_TOTAL (3 h): 1.8 g
LIVER (3 h): 9.1 g
A/G (3 h): 2.3
ALP (3 h): 821 IU/L
ALT (3 h): 34.8 IU/L
AST (3 h): 69.8 IU/L
BUN (3 h): 12.2 mg/dL
CRE (3 h): 0.4 mg/dL
Ca (3 h): 11.3 mg/dL
Cl (3 h): 102.4 meq/L
DBIL (3 h): 0.052 mg/dL
GLC (3 h): 193.6 mg/dL
IP (3 h): 9 mg/dL
K (3 h): 4.5 meq/L
LDH (3 h): 108 IU/L
Na (3 h): 137.8 meq/L
PL (3 h): 141.6 mg/dL
RALB (3 h): 3.7 g/dL
TBIL (3 h): 0.4 mg/dL
TC (3 h): 77.4 mg/dL
TG (3 h): 55.8 mg/dL
TP (3 h): 5.3 g/dL
gamma-GTP (3 h): 1.6 IU/L
TERMINAL_BW (6 h): 190.9 g
APTT (6 h): 17.2 s
Bas (6 h): 0%
Eos (6 h): 1.2%
Fbg (6 h): 205 mg/dL
Hb (6 h): 12.8 g/dL
Ht (6 h): 38.9%
Lym (6 h): 74%
MCH (6 h): 22.2 pg
MCHC (6 h): 33%
MCV (6 h): 67.2 fL
Mono (6 h): 7%
Neu (6 h): 18.2%
PT (6 h): 11.8 s
Plat (6 h): 114.2 x10_4/uL
RBC (6 h): 578.4 x10_4/ul
Ret (6 h): 11.9%
WBC (6 h): 89.1 x10_2/uL
KIDNEY_L (6 h): 0.9 g
KIDNEY_R (6 h): 0.9 g
KIDNEY_TOTAL (6 h): 1.8 g
LIVER (6 h): 8.4 g
A/G (6 h): 2
ALP (6 h): 865.4 IU/L
ALT (6 h): 40.6 IU/L
AST (6 h): 70 IU/L
BUN (6 h): 9 mg/dL
CRE (6 h): 0.5 mg/dL
Ca (6 h): 10.8 mg/dL
Cl (6 h): 102.6 meq/L
DBIL (6 h): 0.068 mg/dL
GLC (6 h): 195.8 mg/dL
IP (6 h): 9.7 mg/dL
K (6 h): 4.6 meq/L
LDH (6 h): 104.8 IU/L
Na (6 h): 138.8 meq/L
PL (6 h): 141.4 mg/dL
RALB (6 h): 3.5 g/dL
TBIL (6 h): 0.4 mg/dL
TC (6 h): 82.8 mg/dL
TG (6 h): 46.8 mg/dL
TP (6 h): 5.3 g/dL
gamma-GTP (6 h): 1.6 IU/L
TERMINAL_BW (9 h): 190.6 g
APTT (9 h): 17.1 s
Bas (9 h): 0%
Eos (9 h): 1%
Fbg (9 h): 201.2 mg/dL
Hb (9 h): 12.6 g/dL
Ht (9 h): 38.1%
Lym (9 h): 70.4%
MCH (9 h): 21.6 pg
MCHC (9 h): 33%
MCV (9 h): 65.6 fL
Mono (9 h): 8%
Neu (9 h): 21%
PT (9 h): 12.1 s
Plat (9 h): 119.4 x10_4/uL
RBC (9 h): 580.8 x10_4/ul
Ret (9 h): 10.6%
WBC (9 h): 83.7 x10_2/uL
KIDNEY_L (9 h): 0.9 g
KIDNEY_R (9 h): 0.9 g
KIDNEY_TOTAL (9 h): 1.8 g
LIVER (9 h): 8.1 g
A/G (9 h): 2.2
ALP (9 h): 827.2 IU/L
ALT (9 h): 34.6 IU/L
AST (9 h): 64.6 IU/L
BUN (9 h): 12.2 mg/dL
CRE (9 h): 0.6 mg/dL
Ca (9 h): 10.4 mg/dL
Cl (9 h): 104.8 meq/L
DBIL (9 h): 0.1 mg/dL
GLC (9 h): 199.2 mg/dL
IP (9 h): 10.3 mg/dL
K (9 h): 5 meq/L
LDH (9 h): 108.2 IU/L
Na (9 h): 139 meq/L
PL (9 h): 132 mg/dL
RALB (9 h): 3.6 g/dL
TBIL (9 h): 0.4 mg/dL
TC (9 h): 82.2 mg/dL
TG (9 h): 48.4 mg/dL
TP (9 h): 5.2 g/dL
gamma-GTP (9 h): 0.8 IU/L
TERMINAL_BW (24 h): 210.7 g
APTT (24 h): 16.3 s
Bas (24 h): 0%
Eos (24 h): 1%
Fbg (24 h): 225 mg/dL
Hb (24 h): 12.8 g/dL
Ht (24 h): 38.6%
Lym (24 h): 75.8%
MCH (24 h): 21.7 pg
MCHC (24 h): 33.2%
MCV (24 h): 65.3 fL
Mono (24 h): 7.6%
Neu (24 h): 15.2%
PT (24 h): 11.5 s
Plat (24 h): 112.6 x10_4/uL
RBC (24 h): 590.8 x10_4/ul
Ret (24 h): 10.5%
WBC (24 h): 105.8 x10_2/uL
KIDNEY_L (24 h): 1 g
KIDNEY_R (24 h): 1 g
KIDNEY_TOTAL (24 h): 2 g
LIVER (24 h): 10.6 g
A/G (24 h): 2.1
ALP (24 h): 875.4 IU/L
ALT (24 h): 36.8 IU/L
AST (24 h): 66.2 IU/L
BUN (24 h): 15.8 mg/dL
CRE (24 h): 0.6 mg/dL
Ca (24 h): 11.2 mg/dL
Cl (24 h): 100.8 meq/L
DBIL (24 h): 0.016 mg/dL
GLC (24 h): 207.6 mg/dL
IP (24 h): 8.4 mg/dL
K (24 h): 4.5 meq/L
LDH (24 h): 120.6 IU/L
Na (24 h): 140 meq/L
PL (24 h): 156.4 mg/dL
RALB (24 h): 3.8 g/dL
TBIL (24 h): 0.3 mg/dL
TC (24 h): 86.4 mg/dL
TG (24 h): 114.4 mg/dL
TP (24 h): 5.6 g/dL
gamma-GTP (24 h): 1.4 IU/L
